Reference: patent publication US20170045513A1, “METHODS OF DIAGNOSING CELIAC DISEASE USING IP-10” (ImmusanT, Inc., priority 2014, published 2017)
Non-standard residues stand in square brackets, D forms with d. pGlu = O=C1CC[C@@H](C(=O)O)N1

How the values were obtained:
Type in all cases: cell-based, human
[1] = test system: gluten-reactive T cells; experiment: 96-well plate whole blood cytokine release, IFNγ by MAGPIX multiplex bead assay; settings: for Percent of maximal response to individual gluten peptides, IFNg: after oral gluten challenge; for IFNγ WB MAGPIX % max Mean: n = 8, blood after oral gluten challenge, individual peptides 5 μM (Peptide 2* of P14, Pepscan: 10 μg/mL (5.45 μM))
[2] = test system: gluten-reactive T cells; experiment: 96-well plate whole blood cytokine release, IP-10 by MAGPIX multiplex bead assay; settings: for Percent of maximal response to individual gluten peptides, IP-10: after oral gluten challenge; for IP-10 WB MAGPIX % max Mean: n = 10, blood after oral gluten challenge, individual peptides 5 μM (Peptide 2* of P14, Pepscan: 10 μg/mL (5.45 μM))
[3] = test system: gluten-reactive T cells; experiment: Cytokine release assays taken together (IFNγ ELISpot, whole blood IFNγ and IP-10, in-tube IFNγ ELISA)
How it was run: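 Whole blood with peptides (P3 0.05-50 μg/mL; P13/P14 0.025-25 μM; […]), 24 h, 37 °C; plasma IFNγ/IP-10 by multiplex beads. Tube assay: 1 mL blood with P3 or CEF, 24 h, plasma IFNγ ELISA; elevated if >7.2 pg/mL above medium tube and SI >1.25. ELISpot overnight on fresh PBMC.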

[4] = blood collected after oral gluten challenge

Substance	Percent of maximal response to individual gluten peptides, IFNg ([1]; Subject 2, Max. 116 pg/mL)	Percent of maximal response to individual gluten peptides, IFNg ([1]; Subject 3, Max. 799 pg/mL)	Percent of maximal response to individual gluten peptides, IFNg ([1]; Subject 4, Max. 136 pg/mL)	Percent of maximal response to individual gluten peptides, IFNg ([1]; Subject 6, Max. 72 pg/mL)	Percent of maximal response to individual gluten peptides, IFNg ([1]; Subject 7, Max. 17 pg/mL)	Percent of maximal response to individual gluten peptides, IFNg ([1]; Subject 8, Max. 47 pg/mL)	Percent of maximal response to individual gluten peptides, IFNg ([1]; Subject 9, Max. 67 pg/mL)	Percent of maximal response to individual gluten peptides, IFNg ([1]; Subject 10, Max. 229 pg/mL)	IFNγ WB MAGPIX % max Mean [1] [% max]	Percent of maximal response to individual gluten peptides, IP-10 ([2]; Subject 1, Max. 2331 pg/mL)	Percent of maximal response to individual gluten peptides, IP-10 ([2]; Subject 2, Max. 3646 pg/mL)	Percent of maximal response to individual gluten peptides, IP-10 ([2]; Subject 3, Max. 9492 pg/mL)	Percent of maximal response to individual gluten peptides, IP-10 ([2]; Subject 4, Max. 9463 pg/mL)	Percent of maximal response to individual gluten peptides, IP-10 ([2]; Subject 5, Max. 9336 pg/mL)	Percent of maximal response to individual gluten peptides, IP-10 ([2]; Subject 6, Max. 5863 pg/mL)	Percent of maximal response to individual gluten peptides, IP-10 ([2]; Subject 7, Max. 2330 pg/mL)	Percent of maximal response to individual gluten peptides, IP-10 ([2]; Subject 8, Max. 4019 pg/mL)	Percent of maximal response to individual gluten peptides, IP-10 ([2]; Subject 9, Max. 8349 pg/mL)	Percent of maximal response to individual gluten peptides, IP-10 ([2]; Subject 10, Max. 8922 pg/mL)	IP-10 WB MAGPIX % max Mean [2]	also measured
(pE)PEQPFPEQPIPEQPQPYP-amide ([pGlu]PEQPFPEQPIPEQPQPYP-NH2; SMILES CC[C@H](C)[C@H](NC(=O)[C@@H]1CCCN1C(=O)[C@H](CCC(N)=O)NC(=O)[C@H](CCC(=O)O)NC(=O)[C@@H]1CCCN1C(=O)[C@H](Cc1ccccc1)NC(=O)[C@@H]1CCCN1C(=O)[C@H](CCC(N)=O)NC(=O)[C@H](CCC(=O)O)NC(=O)[C@@H]1CCCN1C(=O)[C@@H]1CCC(=O)N1)C(=O)N1CCC[C@H]1C(=O)N[C@@H](CCC(=O)O)C(=O)N[C@@H](CCC(N)=O)C(=O)N1CCC[C@H]1C(=O)N[C@@H](CCC(N)=O)C(=O)N1CCC[C@H]1C(=O)N[C@@H](Cc1ccc(O)cc1)C(=O)N1CCC[C@H]1C(N)=O) [Peptide 14]	53 % of max	100 % of max	100 % of max	100 % of max	99 % of max	100 % of max	98 % of max	100 % of max	94	2 % of max	31 % of max	≥ 100 % of max	≥ 100 % of max	100 % of max	100 % of max	100 % of max	91 % of max	≥ 100 % of max	≥ 100 % of max	82 % max	rank of activity among individual gluten peptides [3, 4]: most active
(pE)QPYPQPELPYPQPQ-amide ([pGlu]QPYPQPELPYPQPQ-NH2; SMILES CC(C)C[C@H](NC(=O)[C@H](CCC(=O)O)NC(=O)[C@@H]1CCCN1C(=O)[C@H](CCC(N)=O)NC(=O)[C@@H]1CCCN1C(=O)[C@H](Cc1ccc(O)cc1)NC(=O)[C@@H]1CCCN1C(=O)[C@H](CCC(N)=O)NC(=O)[C@@H]1CCC(=O)N1)C(=O)N1CCC[C@H]1C(=O)N[C@@H](Cc1ccc(O)cc1)C(=O)N1CCC[C@H]1C(=O)N[C@@H](CCC(N)=O)C(=O)N1CCC[C@H]1C(=O)N[C@@H](CCC(N)=O)C(N)=O) [Peptide 15]	46 % of max	5 % of max	24 % of max	5 % of max	6 % of max	4 % of max	100 % of max	7 % of max	25	4 % of max	30 % of max	≥ 100 % of max	67 % of max	33 % of max	0 % of max	6 % of max	5 % of max	69 % of max	17 % of max	33 % max	activity relative to Peptide 14 in the cytokine release assays [3, 4]: no more than two-thirds as active as Peptide 14
(pE)QPFPQPEQPFSQQ-amide ([pGlu]QPFPQPEQPFSQQ-NH2; SMILES NC(=O)CC[C@H](NC(=O)[C@H](CCC(N)=O)NC(=O)[C@H](CO)NC(=O)[C@H](Cc1ccccc1)NC(=O)[C@@H]1CCCN1C(=O)[C@H](CCC(N)=O)NC(=O)[C@H](CCC(=O)O)NC(=O)[C@@H]1CCCN1C(=O)[C@H](CCC(N)=O)NC(=O)[C@@H]1CCCN1C(=O)[C@H](Cc1ccccc1)NC(=O)[C@@H]1CCCN1C(=O)[C@H](CCC(N)=O)NC(=O)[C@@H]1CCC(=O)N1)C(N)=O) [Peptide 7]	60 % of max	2 % of max	8 % of max	0 % of max	0 % of max	0 % of max	0 % of max	1 % of max	9	0 % of max	7 % of max	60 % of max	20 % of max	12 % of max	0 % of max	0 % of max	3 % of max	17 % of max	3 % of max	12 (12) % max	cytokine release / immunogenicity of individual peptide ([3]; HLA-DQ2.5+ celiac disease subjects after gluten challenge): weak or absent
(pE)QPFPQPEQPIPVQPEQS-amide ([pGlu]QPFPQPEQPIPVQPEQS-NH2; SMILES CC[C@H](C)[C@H](NC(=O)[C@@H]1CCCN1C(=O)[C@H](CCC(N)=O)NC(=O)[C@H](CCC(=O)O)NC(=O)[C@@H]1CCCN1C(=O)[C@H](CCC(N)=O)NC(=O)[C@@H]1CCCN1C(=O)[C@H](Cc1ccccc1)NC(=O)[C@@H]1CCCN1C(=O)[C@H](CCC(N)=O)NC(=O)[C@@H]1CCC(=O)N1)C(=O)N1CCC[C@H]1C(=O)N[C@H](C(=O)N[C@@H](CCC(N)=O)C(=O)N1CCC[C@H]1C(=O)N[C@@H](CCC(=O)O)C(=O)N[C@@H](CCC(N)=O)C(=O)N[C@@H](CO)C(N)=O)C(C)C) [Peptide 4]	33 % of max	13 % of max	24 % of max	1 % of max	1 % of max	9 % of max	29 % of max	11 % of max	15	18 % of max	19 % of max	≥ 100 % of max	≥ 100 % of max	51 % of max	2 % of max	3 % of max	7 % of max	48 % of max	30 % of max	38 % max	activity relative to Peptide 14 in the cytokine release assays [3, 4]: from one-half to one-eighth as active as Peptide 14
